This data set in a line: Accelerated stability testing at 60° C., purity by HPLC. The data set is classed as physicochemical. The following applies: for Purity (absolute %) / Purity (% of initial amount): At 60° C. As for the experimental part: The HPLC analysis can suitably follow the parameters in Table 2 below.
Samples of stabilized 1,25-dihydroxyvitamin D2 according to Example 1 and commercially-obtained 1,25-dihydroxyvitamin D2 (SAFC, Madison, Wis. USA) made by crystallization from methyl formate were placed in a 60° C. oven in several 2 ml amber vials with Teflon-lined caps. Samples were taken out at different time points and purity was checked by HPLC according to Example 1. The results are presented in Tables 3 and 4 below and in FIGS. 1 and 2. […] The stabilized material prepared according to the Example 1 will clearly have advantage when any heat is required during formulation.

The text below walks through data of patent US11926583B2, “Stabilized 1, 25-dihydroxyvitamin D2 and method of making same” (CYTOCHROMA INC., priority 2008, dated 2024).

Molecules are shown by their SMILES.

On to `C=C1/C(=C\C=C2/CCC[C@]3(C)[C@@H]([C@H](C)/C=C/[C@H](C)C(C)(C)O)CC[C@@H]23)C[C@@H](O)C[C@@H]1O` [Commercial, 1,25-dihydroxyvitamin D2], for which the “Purity (absolute %)” value is reported as 96.80% (0 h); 95.18% (4 h); 94.98% (8 h); 94.69% (16 h); 93.98% (24 h); 93.86% (48 h). Besides, the “Purity (absolute %)” value (72 h) is given as 93.82%. For the same compound, the “Purity (% of initial amount)” value reads like this: (4 h) 98.33%; (8 h) 98.12%; (16 h) 97.82%; (24 h) 97.09%; (48 h) 96.97%; (72 h) 96.92%. Moreover, the “Purity (% of initial amount)” value (Initial %) was 100%.
Turning to `C=C1/C(=C\C=C2/CCC[C@]3(C)[C@@H]([C@H](C)/C=C/[C@H](C)C(C)(C)O)CC[C@@H]23)C[C@@H](O)C[C@@H]1O` [Example 1, 1,25-dihydroxyvitamin D2], under “60° C., up to 72 hours”, the “Stability compared to commercially available material containing residual methyl formate” value is listed as “surprisingly more stable”. Also, the “Purity (absolute %)” value by setting is: (0 h) 99.40%; (4 h) 99.38%; (8 h) 99.42%; (16 h) 99.33%; (24 h) 99.42%; (48 h) 99.31%. In addition, under “72 h”, the “Purity (absolute %)” value is given as 98.89%. Moreover, the “Purity (% of initial amount)” value (4 h) came out at 99.98%; the “Purity (% of initial amount)” value (8 h) amounted to 100%; the “Purity (% of initial amount)” value (16 h) amounted to 99.93%; the “Purity (% of initial amount)” value (24 h) amounted to 100%; the “Purity (% of initial amount)” value (48 h) was found to be 99.90%; the “Purity (% of initial amount)” value (72 h) came out at 99.50%.
